Drawing on a melting point compilation (Tetko et al.; mined from patent text by program, amines drawn as free bases though some values may be those of a salt), this text covers melting point for 93 molecules.

What is called melting point is the temperature of the solid-liquid transition.

Molecule `S=C(Nc1ccc(Cl)cc1)NC1C2CC3C(C2)C31` (stereo not drawn) gave a melting point of 164 to 166 °C.

Consider `COc1cc(OC)nc(NC(=O)N=NS(=O)(=O)C2OCCN2C)n1` (stereo not drawn), for which the melting point is 174 to 175 °C.

`O=C1Nc2ccccc2C12CCCC(Br)C2` (stereo not drawn) displayed a melting point of 196 to 199 °C.

Turning to `O=C1CCC(N2C(=O)c3ccc(CNC(=O)Nc4ccccc4)cc3C2=O)C(=O)N1` (stereo not drawn), the melting point was 288 to 290 °C.

`COc1cc(Cc2cnc(NCCSCc3cc(CN(C)C)ccn3)[nH]c2=O)ccn1`: the melting point fell in the range of 65 to 74 °C.

Consider `COc1ccc(Cn2c(S)nnc2C(N)=O)cc1`, for which the melting point is 240 to 242 °C.

On to `Clc1ccc(-c2nc[nH]c2-c2cccs2)cc1`, for which the melting point lay within 244 to 245 °C.

On to `COc1cccc(-c2ccc3c(c2)C(C)(C)OC(=S)N3)c1`, for which the melting point lay within 142 to 143 °C.

Take `O=[N+]([O-])c1ccc(NCCCn2ccnc2)c(F)c1`: the melting point was 144 °C.

Consider `CCN(CC)C(=O)n1ccc(Sc2ccc(Br)cc2Cl)n1`, for which the melting point lay within 77 to 79 °C.

The molecule `CNC(=O)[C@H]1S[C@@H](n2cnc3c(N)nc(Cl)nc32)[C@H](O)[C@@H]1O` had a melting point of 233 to 235 °C.

Molecule `COc1nc(C)cnc1N` showed a melting point of 75 to 76.5 °C.

Consider `COC(=O)N[C@@H](Cc1ccccc1)[C@H](O)CCl`, for which the melting point fell in the range of 163 to 164 °C.

Molecule `O=C(CN1C(=O)c2ccccc2C1=O)c1cc(O)c(O)c([N+](=O)[O-])c1` gave a melting point of 214 to 216 °C.

On to `CN1c2ccccc2NC(=O)c2cccnc21`, for which the melting point lay within 235 to 237 °C.

Regarding `Cc1c(Cc2ccc(F)c(Cl)c2)sc2c(-c3cccc(C(=O)NCCO)c3)cccc12`, the melting point lay within 146 to 147 °C.

In the case of `COCCc1nc2c(N)nc3ccccc3c2n1CCCCNC(=O)c1c[nH]c2ccccc12`, the melting point was in the range of 226 to 227 °C.

As to `CC1(C)Nc2cccc3cccc(c23)N1`, the melting point is 114 to 115 °C.

`CCCCCCCOC1CCC(=O)N1` (stereo not drawn) registered a melting point of 52 to 54 °C.

For `COc1cc2c(cc1OC)CN(CCCOc1ccc(NC(=O)c3cccc4c(=O)c5ccccc5sc34)cc1)CC2`, the melting point stood at 210 °C.

As for `COCc1nc(C(C)(C)O)c(C(=O)OC)[nH]1`, the melting point lay within 94.5 to 96 °C.

The molecule `COC(=O)c1ccc2cc(-c3ccc(C(C)(C)C)cc3)oc2c1` gave a melting point of 148 °C.

`CCOC(=O)Cc1nc2ccccc2n1C` had a melting point of 66 to 67 °C.

`O=C(Nc1cccc(-c2ccnc3c(C(=O)c4ccco4)cnn23)c1)c1ccccc1` gave a melting point of 220 to 222 °C.

In the case of `CCCc1c(S(=O)CCCOc2ccc(C(C)=O)c(OCCCC(=O)OCC)c2CCC)ccc(C(C)=O)c1O` (stereo not drawn), the melting point lay in the range of 74 to 76 °C.

Regarding `CCOC(=O)C(C)(C)OCc1cc2cc(C(F)(F)F)ccc2n1S(=O)(=O)c1ccccc1`, the melting point was in the range of 62 to 64 °C.

As for `Cc1nc(Cl)c(C)c(Cl)n1`, the melting point fell in the range of 46 to 47 °C.

As to `CCOCc1nc2c(N)nc3cc(OCCCc4cccs4)ccc3c2n1CC(C)(C)NS(C)(=O)=O`, the melting point is 202 to 203 °C.

The molecule `CC(O)c1ccc2c(c1)CCC(=O)N2` (stereo not drawn) displayed a melting point of 174 °C.

For `COc1cc(OC)nc(C(O)(C(=O)NS(C)(=O)=O)c2ccccc2)n1` (stereo not drawn), the melting point lay within 94 to 96 °C.

`COC1(OCc2ccccc2)C=C2C(=CC1)CCN(CCO)C2C1(c2ccccc2Cl)CC1` (stereo not drawn) returned a melting point of 65 to 70 °C.

`Nc1nc(-c2ccccc2)c(-c2ccnc(Nc3cccc(I)c3)n2)s1`: the melting point lay in the range of 243 to 244 °C.

Take `CCC(O)CN1N=C(c2ccccc2)CC(O)C1=O` (stereo not drawn): the melting point was 92 to 94 °C.

On to `Cc1cc(C)nc(NC(=O)Cc2cc(Br)sc2Br)c1`, for which the melting point amounted to 109 °C.

For `CCCCOc1cc2c(Nc3cc(OC)c(Cl)cc3Cl)c(C#N)cnc2cc1OCCOC`, the melting point fell in the range of 166 to 167 °C.

For the molecule `O=C(Nc1cccc2cc(Cn3ccnc3)cnc12)c1c(Cl)cccc1Cl`, the melting point lay within 177 to 179 °C.

The molecule `CC(=O)Nc1c(C(=O)c2ccccc2)[nH]c2ccc(NS(C)(=O)=O)cc12` showed a melting point of 260 to 261 °C.

On to `CCOC(=O)c1cnn(-c2cccc(Cl)c2)c1C(N)=O`, for which the melting point amounted to 132 °C.

On to `COc1ccc(CC(C)CC(=O)O)c(C(C)C)c1OC` (stereo not drawn), for which the melting point was 100 to 101 °C.

Take `CC(=O)OCC(=O)Nc1cccc(N2CCCCC2)c1C#N`: the melting point fell in the range of 90 to 92 °C.

Molecule `CCCCn1c(=O)c2c(ncn2S(=O)(=O)c2c(C)noc2C)n(CCCC)c1=O` returned a melting point of 103 to 105 °C.

The molecule `CC(=NNC(=O)c1cccc(C(F)(F)F)c1)c1cccnc1` yielded a melting point of 183 °C.

`Cc1ccc(I)c(I)c1C` showed a melting point of 175 to 178 °C.

The molecule `CC(C)(C)C(O)(Cn1cncn1)C(Cl)=CCl` (stereo not drawn) registered a melting point of 49 to 52 °C.

For `COC(=O)C1OC(I)C(OC(=O)C(C)(C)C)C(OC(=O)C(C)(C)C)C1OC(=O)C(C)(C)C` (stereo not drawn), the melting point lay in the range of 98 to 100 °C.

For `Cn1cccc1C(=O)c1[nH]c2ccc(Cl)cc2c1CC(=O)O`, the melting point lay in the range of 203 to 205 °C.

The molecule `CC(C)CN1C(=O)C2=C3SC(S(N)(=O)=O)=CC1CC(C2)S3(=O)=O` (stereo not drawn) displayed a melting point of 239 to 241 °C.

The molecule `CC(=O)OCC1OC(n2cnc3c(N)nc(F)nc32)C(OC(C)=O)C1OC(C)=O` (stereo not drawn) returned a melting point of 195 to 196 °C.

As for `O=C1Cc2c(CCO)cccc2N1`, the melting point fell in the range of 145 to 147 °C.

For the molecule `CC(C)CC(NC(=O)C(Cc1c[nH]cn1)NC(=O)C(CC(=O)NCCc1ccccc1)Cc1cccc2ccccc12)C(O)C(=O)OCc1ccccc1` (mixture of isomers), the melting point was in the range of 81 to 86 °C.

In the case of `O=C(O)C(=O)c1ccc(C(F)(F)F)cc1`, the melting point was in the range of 63 to 65 °C.

Molecule `CC(C)(C)c1cc(C(=O)NCCCSc2ccncc2)cc(C(C)(C)C)c1O` displayed a melting point of 203 to 204 °C.

Regarding `Cc1cc(-c2cc(C(F)(F)F)nn2-c2ccc(S(N)(=O)=O)cc2)ccc1-c1cocn1`, the melting point fell in the range of 112 to 114 °C.

`Nc1nc(N)nc(C2CCC(c3nc(N)nc(N)n3)CC2)n1` (stereo not drawn) returned a melting point of 317 to 321 °C.

Regarding `Cc1ccc(-c2nc(CCl)cs2)s1`, the melting point was in the range of 89 to 90 °C.

Molecule `CCC(=NO)C(C)(C)NCCCN` registered a melting point of 72 to 74 °C.

Take `CCCCOc1cc2ccc(C(=O)O)cc2cc1OCCCC`: the melting point lay within 168 to 169 °C.

The molecule `CS(=O)(=O)c1ccc(C2=C(c3ccc(F)cc3)CC3(CCCC3)C2)cc1` came in with a melting point of 142 to 143 °C.

`NC(=O)Cc1cccc(C(=O)c2ccccc2)c1N` showed a melting point of 178 to 180 °C.

`COCc1cccc(CC#N)c1[N+](=O)[O-]` registered a melting point of 34 to 36 °C.

In the case of `CSC(C(N)=O)c1cc(Cl)cc(C(=O)c2ccccc2)c1N` (stereo not drawn), the melting point worked out at 174 °C.

Molecule `CCCCCCC(=O)NNC(=O)OC` displayed a melting point of 74 to 75 °C.

`CCC1CC(=O)N(CCc2ccc(N)cc2)N=C1c1ccc(OC)c(OC)c1` (stereo not drawn) came in with a melting point of 112 °C.

Molecule `COc1cc2c(cc1NN)oc1ccccc12` returned a melting point of 113 to 115 °C.

`O=C(O)C(=O)c1ccc(OCCOc2ccc3ccccc3c2)s1` registered a melting point of 152 to 154 °C.

In turn, `COc1ccc(C(F)(F)F)cc1-c1ccc(S(=O)(=O)N2c3ccccc3CC2C(=O)NCCOc2ccc(CC(=O)O)cc2)cc1` (stereo not drawn) returned a melting point of 85 to 88 °C.

As to `Cc1ccc(C(=O)c2cc3cc(OCc4ccccc4)ccc3[nH]2)cc1`, the melting point lay in the range of 199 to 200 °C.

As for `COc1cccc2c1CCN(C)C2CN1CCC(c2ccccc2)C1` (stereo not drawn), the melting point fell in the range of 152 to 153 °C.

For the molecule `CCCN(CCCNc1ncc(Cc2ccc3c(c2)OCO3)c(=O)[nH]1)c1ccccn1`, the melting point fell in the range of 86 to 92 °C.

Molecule `COC(=O)COc1cc2c(c(Cl)c1Cl)C(=O)C(c1ccccc1)C2` (stereo not drawn) registered a melting point of 152 to 153 °C.

As to `CC(C)n1nc(-c2c(-c3ccccc3)nc(N)nc2N2CCCC2)ccc1=O`, the melting point is greater than 300 °C.

As for `N#CSCCNc1ccc(Cl)cc1[N+](=O)[O-]`, the melting point lay in the range of 154 to 155 °C.

The molecule `CCC(=O)c1cc(Cl)c(OC)cc1OC` gave a melting point of 115 °C.

For `CCCCC(C(C)C)C(CN)CC(=O)O` (stereo not drawn), the melting point was in the range of 160 to 170 °C.

Take `CCN[C@@H]1CCCC[C@H]1NS(=O)(=O)c1ccc(C)cc1` (relative stereo): the melting point is 112 to 114 °C.

Molecule `COc1ccc(C(=O)Nc2nc3cc4c(cc3[nH]2)NC(=O)C4(C)C)cc1` had a melting point greater than 300 °C.

In the case of `CCOC(=O)C(=CNCC1CCCO1)C(=O)c1ccc(Br)cc1Cl` (stereo not drawn), the melting point is 136 °C.

`COc1ccc(-c2[nH]c(C(N)(C(F)(F)F)C(F)(F)F)nc2-c2ccc(F)cc2)cc1` yielded a melting point of 123 to 124 °C.

Molecule `COc1ccc(N(c2nc(N)nc(NC3CC3)n2)C2CC2)cc1F` showed a melting point of 91 to 92 °C.

As to `COc1ccc2c(c1OC)C1(COc3cc4c(cc31)OCCO4)C(=O)N2Cc1ccc(C(F)(F)F)o1` (stereo not drawn), the melting point was 62 to 65 °C.

Regarding `c1ccc(C(OC2CCN(CCCNc3ccc4ncnn4n3)CC2)c2ccccc2)cc1`, the melting point fell in the range of 136 to 138 °C.

On to `O=S(=O)(Cc1ccccc1)c1ccc(Cl)cc1`, for which the melting point stood at 148 °C.

In the case of `CSC(SC)=C(C#N)S(=O)(=O)c1ccccc1`, the melting point was in the range of 99 to 101 °C.

With `CCCc1nc(C(OCC)OCC)cc(NC(c2ccccc2)(c2ccccc2)c2ccccc2)c1F`, the melting point is 111 to 112 °C.

Molecule `CC(C(=O)c1ccc(F)cc1F)c1ncccn1` (stereo not drawn) gave a melting point of 118 to 119 °C.

For `CSc1cc2ncnc(Cl)c2s1`, the melting point fell in the range of 138 to 140 °C.

Molecule `CCCCCCCCCCCCNC(=S)NCCCCCCCCCCCC` yielded a melting point of 75 to 78 °C.

With `CCOC(=O)C=Cc1cc(-n2nc3ccc(Cl)cn3c2=O)c(F)cc1Cl`, the melting point was in the range of 162 to 165 °C.

As for `COc1ccc(Oc2ccccc2)c(NS(C)(=O)=O)c1`, the melting point is 110 to 111 °C.

For `O=C(c1ccc(F)c(F)c1Nc1ccc(I)cc1F)N1CC(O)CO1` (stereo not drawn), the melting point fell in the range of 122 to 124 °C.

For `COCC=C(NC(C)=O)C(=O)OC`, the melting point lay in the range of 61 to 63 °C.

`O=C(O)C1=Cc2cc(-c3ccc(Cl)cc3)ccc2OCC1` showed a melting point of 263 to 264 °C.

The molecule `CC(C(N)=O)c1ccc2c(c1)C(=O)Cc1ccccc1S2` (stereo not drawn) returned a melting point of 190 to 192 °C.
